According to patent US4508704A, “Radioactive metals complexed with phosphonate derivatives of bicycloheptane bis(alkylamines)” (The Dow Chemical Company, priority 1984, dated 1985):

Assays:
[1] = cited from earlier work
[2] = Biodistribution in several tissues in rabbits, NaI scintillation counter; format: in vivo; conditions: 3 hours after injection, ear vein
Description: The complex of Example 1 was injected in the ear vein of a series of rabbits. The rabbits were killed 3 hours after injection. The radiation of several tissues was quantified by counting using a NaI scintillation counter.

[3] = Biodistribution in several tissues in rats, NaI scintillation counter; format: in vivo; conditions: 2 hours, ~1 mCi, tail vein
Description: The Tc-complex of Example 1 (50 μl, ~1 mCi) was injected into the tail vein of a series of rats. The animals were killed after 2 hours and the radiation from several tissues was quantitated using a NaI scintillation counter.

Compound | accumulation by bone ([1]; after intravenous administration) | biological half life ([1]; in vivo) | Ratio Femur/blood [2] | Ratio Femur/muscle [2] | radiation in Blood [2] | radiation in Femur [2] | radiation in Liver [2] | radiation in Muscle [2] | Percent Dose/Organ, Blood [3] | Percent Dose/Organ, Skeleton [3] | Percent Dose/Organ, Urine [3] | Ratio Bone/blood [3] | Ratio Bone/muscle [3]
[85Sr] [Sr-85, Strontium-85] | rapidly accumulated by bone | ~ 800 days |  |  |  |  |  |  |  |  |  |  | 
methylenediphosphonate [Tc-MDP] |  |  | 44 | 114 | 0.13 | 5.7 | 0.11 | 0.05 | 0.27 Percent Dose/Organ | 39.4 Percent Dose/Organ | 50.9 Percent Dose/Organ | 146 | 150
